Earlier results as cited in US7998710B2, “Process for purifying difructose dianhydride III” (Nippon Beet Sugar Mfg., Co., Ltd., priority 2003, dated 2011).

Tests used:
[1] = tested on: absorption of minerals such as Ca; details: Patent Document 1
[2] = relative to sucrose

- solubility in water compared with that of sucrose [2]: 90-95%
Compound: OC[C@H]1O[C@@]2(CO[C@]3(CO)O[C@H](CO)[C@@H](O)[C@@H]3O2)[C@@H](O)[C@@H]1O [DFA III, α-D-fructofuranose-β-D-fructofuranose-2′,1:2,3′-dianhydride]
- effect of promoting the absorption of minerals such as Ca [1]: promoting the absorption of minerals such as Ca
